Measurements as given in patent US4820821A, “Novel pyridazinone-imines and their physiologically tolerated addition salts with acids, their preparation and therapeutic agents containing these compounds” (BASF Aktiengesellschaft, priority 1981, dated 1989).

Key:
[1] = test system: reserpine-induced hypothermia / blood pressure; assay: Quotient ED 50% antidepressive action / ED 20% hypertensive action; format: in vivo, mouse / rat; conditions: hypertensive test i.v.
Excerpt: This is evident from the fact that the quotient defined above differs wtih respect to the comparative compounds. […] This arises, inter alia, from the fact that the hypertensive ED 20 constitutes the denominator of the quotient. It is possible that the unforeseeable selective direction of action is attributable to the special substitution,in accordance with the invention, at the 4-imino group.

[2] = test system: reserpine-induced hypothermia; assay: Antidepressive action: reserpine antagonism, inhibition of reserpine-induced hypothermia of the mouse; format: in vivo, male Swiss mice; conditions: Table 1; for ED50: Mus musculus, oral administration 60 min before reserpine, dose based on the base, read-out: ED 50% (dose which inhibits the reserpine-induced hypothermia of the mouse by 50%); for R.A. (relative activity), reserpine antagonism: amezinium = 1.00, oral
Procedure: Antidepressants effect dose-dependent inhibition of this hypotherma. The test substances are administered orally 60 minutes before the administration of reserpine.
The dose which effects 50% inhibition of the reserpine-induced hypothermia is determined, as the ED 50%, from the linear regression between log dose (mg/kg) and relative reduction in hypothermia (Δ%).

blood pressure = assay: Effect on the blood pressure: hypertensive action, pithed rat; format: in vivo, male Sprague-Dawley rats; conditions: Table 1, i.v. administration; for ED20: Rattus norvegicus, iv, dose based on the base, read-out: ED 20% hypertensive action (dose which increases the blood pressure of the pithed rat by 20%); for R.A. (relative activity), hypertensive action: amezinium = 1.00
Procedure: The measurement of the blood pressure in the carotid artery was carried out by means of Statham transducers. The substance was administered in the jugular vein (as an aqueous solution, 1 ml/kg) or intraperitoneally (as a tragacanth suspension, 2 ml/kg). The ED 20% is determined as the dose which increases the blood pressure by 20%.

Structure (SMILES)	Q (quotient ED 50% antidepressive action/ED 20% hypertensive action) [1]	ED50 [2]	R.A. (relative activity), reserpine antagonism [2]	ED20 (blood pressure)	R.A. (relative activity), hypertensive action (blood pressure)
CNC(=S)N=c1ccn(-c2ccccc2)nc1 [Example 86, 1,4-dihydro-4-(methylthiocarbamyl)-imino-1-phenylpyridazine]	< 2.1	2.1 mg/kg	0.35	> 1 mg/kg	< 0.05
CCNC(=S)N=c1ccn(-c2ccccc2)nc1 [Example 87, 1,4-dihydro-4-(ethylthiocarbamyl)-imino-1-phenylpyridazine]	< 2.91	2.91 mg/kg	0.25	> 1 mg/kg	< 0.05
